# From patent publication US12435051B2, “Dual modulator of mGluR5 and 5-HT2A receptor, and use thereof” (Vivozon Inc., priority 2020, dated 2025)
# Like-named read-outs stand apart in the source and are kept apart here.
# Columns and labels:
# [1] = test system: spinal nerve ligation model (neuropathic pain model); assay: Confirmation of synergistic analgesic effect via dual action (spinal nerve ligation model); format: in vivo; settings: sub-effective doses, FIG. 1
# Protocol: The confirmation of the synergistic analgesic effect via the dual action of mGluR5 and 5-HT2AR was carried out by the use of representative mGluR5 antagonist MPEP (2-methyl-6-(phenylethynyl)pyridine) and 5-HT2AR antagonist MDL11,939 in a “spinal nerve ligation model” which is a neuropathic pain model.
# In order to measure the analgesic effect of MPEP and MDL11,939, when administered alone or simultaneously together, the reversibility rate of pain relieving parameter (% reversal) was calculated according to the method of Experimental Example 4 and the results are represented in FIG. 1.
# human 5-HT2AR = target: T1, human 5-HT2AR (Homo sapiens, UniProt P28223); assay: HTRF-based IP1 accumulation assay (5-HT2AR antagonistic effect); format: cell-based; settings: HEK293 cells overexpressing human 5-HT2AR; serotonin at EC80
# T1 construct: expressed in transfected cells; host or cells: HEK293
# T1 sequence (P28223 whole entry): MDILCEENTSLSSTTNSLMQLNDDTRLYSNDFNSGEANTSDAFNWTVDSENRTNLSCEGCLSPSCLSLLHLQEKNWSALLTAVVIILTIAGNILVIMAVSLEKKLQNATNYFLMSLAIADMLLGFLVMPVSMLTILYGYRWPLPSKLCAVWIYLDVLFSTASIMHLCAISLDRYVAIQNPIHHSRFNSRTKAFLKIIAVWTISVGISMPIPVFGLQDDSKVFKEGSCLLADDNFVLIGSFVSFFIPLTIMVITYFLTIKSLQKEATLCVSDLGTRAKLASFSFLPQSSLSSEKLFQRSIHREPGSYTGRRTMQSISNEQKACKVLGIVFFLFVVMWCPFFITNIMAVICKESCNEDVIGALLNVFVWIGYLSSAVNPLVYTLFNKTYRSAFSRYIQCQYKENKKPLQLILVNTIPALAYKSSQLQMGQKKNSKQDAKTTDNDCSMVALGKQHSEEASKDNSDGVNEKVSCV
# In short: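 HEK293 cells stably overexpressing human 5-HT2AR were pre-incubated with compound (top 10 μM, serial dilutions, LiCl buffer) 10 min at room temperature, then stimulated with EC80 serotonin 30 min at 37 °C. IP1 accumulation was read by HTRF; IC50s came from activity normalized to serotonin and IP1 controls.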
# mGluR5 = target: T2, mGluR5 (Homo sapiens, UniProt P41594); assay: Fluorescence-based Ca2+ mobilization assay; format: cell-based; settings: HEK293 cells overexpressing mGluR5; L-glutamate at EC80
# T2 construct: expressed in transfected cells; host or cells: HEK293
# T2 sequence (P41594 21-1212): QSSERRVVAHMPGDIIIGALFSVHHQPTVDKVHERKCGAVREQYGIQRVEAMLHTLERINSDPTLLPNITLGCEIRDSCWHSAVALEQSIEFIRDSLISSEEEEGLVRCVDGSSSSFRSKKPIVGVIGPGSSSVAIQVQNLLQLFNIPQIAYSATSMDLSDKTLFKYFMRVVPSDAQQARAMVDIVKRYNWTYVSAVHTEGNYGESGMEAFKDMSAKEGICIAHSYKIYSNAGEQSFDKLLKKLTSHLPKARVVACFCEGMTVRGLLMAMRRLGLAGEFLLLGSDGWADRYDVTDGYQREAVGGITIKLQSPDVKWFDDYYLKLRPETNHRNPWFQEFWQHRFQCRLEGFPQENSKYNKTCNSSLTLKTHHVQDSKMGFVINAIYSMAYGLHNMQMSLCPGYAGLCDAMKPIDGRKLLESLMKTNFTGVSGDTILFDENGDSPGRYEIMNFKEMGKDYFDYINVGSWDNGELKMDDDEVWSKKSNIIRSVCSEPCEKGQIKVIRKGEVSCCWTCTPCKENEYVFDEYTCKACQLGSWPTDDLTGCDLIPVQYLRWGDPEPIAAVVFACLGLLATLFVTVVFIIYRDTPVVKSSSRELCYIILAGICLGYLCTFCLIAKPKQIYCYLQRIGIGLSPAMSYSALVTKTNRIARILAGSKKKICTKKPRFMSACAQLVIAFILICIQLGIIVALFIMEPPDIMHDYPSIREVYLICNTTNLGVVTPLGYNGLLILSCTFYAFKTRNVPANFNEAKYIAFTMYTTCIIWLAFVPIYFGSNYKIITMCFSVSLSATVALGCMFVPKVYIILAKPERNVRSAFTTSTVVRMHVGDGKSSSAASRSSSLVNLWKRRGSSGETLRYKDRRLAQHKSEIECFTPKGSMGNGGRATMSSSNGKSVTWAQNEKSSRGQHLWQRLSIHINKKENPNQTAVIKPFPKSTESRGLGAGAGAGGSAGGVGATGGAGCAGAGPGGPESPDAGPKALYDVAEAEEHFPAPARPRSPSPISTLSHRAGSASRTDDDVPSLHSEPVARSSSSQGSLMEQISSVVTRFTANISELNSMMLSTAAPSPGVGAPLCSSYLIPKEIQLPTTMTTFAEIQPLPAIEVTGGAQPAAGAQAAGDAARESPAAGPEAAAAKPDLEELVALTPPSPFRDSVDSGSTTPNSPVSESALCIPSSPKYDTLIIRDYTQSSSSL
# In short: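 HEK293 cells stably overexpressing mGluR5, dye-loaded 60 min at 37 °C, then preincubated with compound 30 min at room temperature in the dark. Ca2+ response to L-glutamate at EC80 read on FLIPR for 2 min. Signal normalised to glutamate (100%) and vehicle (0%); IC50 from % inhibition.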
# [2] = test system: physical (tactile) allodynia in spinal nerve ligation model; assay: Analgesic efficacy experiment using animal model (Chung model, spinal nerve ligation); format: in vivo, Sprague-Dawley rats; settings: for inhibition in vivo at 50 mg/kg: 50 mpk; for inhibition in vivo at 12.5 mg/kg: 12.5 mpk; for inhibition in vivo at 25 mg/kg: 25 mpk
# Protocol: The Chung model (spinal nerve ligation model) is a representative animal model to study neuropathic pain and is widely accepted as a gold standard for an animal pain model by global pharmaceutical companies around the world.
# In this experiment, male Sprague-Dawley rats (100-120 g) purchased from Koatech (Pyeongtaek-si, Gyeonggi-do) were used. Rats were kept in a room maintained at constant temperature and humidity with a 12 hour light-dark cycle. Rats were allowed to eat and drink freely during the experiment.
# For the Chung surgery, rats were anesthetized by isoflurane inhalation and the left lumbar nerves L5 and L6 were tightly tied with a suture thread (6-0 silk thread) at the end of the dorsal ganglion and at a front of an entrance to the sciatic nerve according to the article (Kim and Chung (1992), Pain 50(3):355-63). After suturing the incision, the rats were recovered for 2 weeks in the controlled maintenance room to induce physical allodynia in the left hind paw of the rat. To measure physical (tactile) allodynia, the rats were placed in a cage with a wire mesh on the bottom. Stimuli of increasing intensity (using the von Frey filaments in a range of 0.41 to 15.8 g) were placed on the plantar surface on the side of the nerve injury. The stimulus intensity at which the pain response (abrupt lifting, licking or sucking of the foot) was induced was recorded while applying gradual increment of stimuli. As described in the study of Chaplan et al. (1994) (Chaplan et al. (1994) J. Neurosci. Methods 53(1):55-63), the paw withdrawal threshold (PWT) was determined by increasing or decreasing continuous stimulus intensity, and the result was analyzed by applying Dixon's up-down method. Only rats showing no behavior dysfunction (e.g., feet dragging or dropping) were selected and included in the study, and the PWT of the rats used was 3.16 g or less.
# After measuring the degree of basic reaction before drug injection, each compound and solvent were injected by oral administration (12.5-100 mg/kg), and the measurement was repeated at regular time intervals (60 and 120 minutes) after the drug was injected.
# The experimenter conducted the PWT measurement in a blind condition not knowing which rat was administered with which drug. The control group was administered with gabapentin (65 mg/kg, intraperitoneal administration), and was randomly mixed during the measurement. Statistical analysis was performed on the measured pain response threshold by calculating the reversal rate (% reversal) from pain in Equation 1 below. […] Pain reversal rate (% reversal)=[(PWT after drug administration)−(PWT before drug administration)]*100/[(15 g, Estimated PWT in normal animals)−(PWT before drug administration)] [Equation 1]
# The PWT used in this time is a value obtained by multiplying the gram, the unit of “force” measure, by 10,000, and taking the logarithm, which is a method generally used in academia.
# Each experiment consisted of the compound group, the solvent group of the compound and the gabapentin (GBP) group as positive control group. As solvent of the compound, 0.5% HPMC (hydroxypropylmethyl cellulose) was used.
# [3] = rat, oral, 100 mpk, 1 h, read-out: % reversal (1 h)
# [4] = rat, oral, 100 mpk, 2 h, read-out: % reversal (2 h)
# [5] = rat, oral, 1 h, read-out: % reversal (1 h)
# [6] = rat, oral, 2 h, read-out: % reversal (2 h)
SMILES,IC50 (human 5-HT2AR) [nM],IC50 (mGluR5) [nM],"inhibition in vivo at 100 mg/kg [2, 3] [%]","inhibition in vivo at 100 mg/kg [2, 4] [%]","inhibition in vivo at 50 mg/kg [2, 5] [%]","inhibition in vivo at 50 mg/kg [2, 6] [%]",further results
"OC(c1ccccc1)C1CCN(CCc2ccccc2)CC1 (stereo not shown) [MDL11,939]",–,–,–,–,–,–,"analgesic effect (% reversal), administered alone [1]: did not show a significant analgesic effect"
"Cc1cccc(C#Cc2ccccc2)n1 [MPEP, 2-methyl-6-(phenylethynyl)pyridine]",–,–,–,–,–,–,"analgesic effect (% reversal), administered alone [1]: did not show a significant analgesic effect"
"O=C(NCC1(NC2CC2)CCCCCC1)c1ccc(C#Cc2ccccc2F)cc1 [Example 12, N-((1-(cyclopropylamino)cycloheptyl)methyl)-4-((2-fluorophenyl)ethynyl)benzamide]",100 to 500,100 to 500,53.8,74.8,–,–,–
"O=C(NCC1(NC2CC2)CCCCCC1)c1ccc(C#Cc2ccncc2F)cc1 [Example 16, N-((1-(cyclopropylamino)cycloheptyl)methyl)-4-((3-fluoropyridin-4-yl)ethynyl)benzamide]",100 to 500,500 to 1000,–,–,61,95.8,–
"O=C(NCC1(NC2CC2)CCCC1)c1ccc(C#Cc2ccncc2)cc1 [Example 2, N-((1-(cyclopropylamino)cyclopentyl)methyl)-4-(pyridin-4-ylethynyl)benzamide]",< 100,500 to 1000,–,–,–,–,"inhibition in vivo at 12.5 mg/kg [2, 5]: 3.91%; inhibition in vivo at 12.5 mg/kg [2, 6]: 28.1%"
"O=C(NCC1CCC(F)(F)CC1)c1ccc(C#Cc2ccccc2F)cc1 [Example 39, N-((4,4-difluorocyclohexyl)methyl)-4-((2-fluorophenyl)ethynyl)benzamide]",< 100,< 100,–,–,–,–,"inhibition in vivo at 100 mg/kg ([2]; Rattus norvegicus, po, 1 h, read-out: % reversal (1 h)): 25.4%; inhibition in vivo at 100 mg/kg ([2]; Rattus norvegicus, po, 2 h, read-out: % reversal (2 h)): 33.5%"
"O=C(NCC1CC(F)(F)C1)c1ccc(C#Cc2ccncc2)cc1 [Example 89, N-((3,3-difluorocyclobutyl)methyl)-4-(pyridin-4-ylethynyl)benzamide]",100 to 500,< 100,–,–,111,103,–
"O=C(NCC1CCOCC1)c1ccc(C#Cc2ccccc2)cc1 [Example 49, 4-(phenylethynyl)-N-((tetrahydro-2H-pyran-4-yl)methyl)benzamide]",100 to 500,< 100,–,–,–,–,"inhibition in vivo at 25 mg/kg [2, 5]: 28.5%; inhibition in vivo at 25 mg/kg [2, 6]: 22%"
"CC(C)NC1(CNC(=O)c2ccc(C#Cc3ccccc3)cc2)CCCCC1 [Example 55, N-((1-(isopropylamino)cyclohexyl)methyl)-4-(phenylethynyl)benzamide]",< 100,1000 to 2000,68.9,80.2,–,–,–

# Continued, in another order:
IC50 (human 5-HT2AR) [nM],IC50 (mGluR5) [nM],SMILES,"inhibition in vivo at 100 mg/kg [2, 3] [%]","inhibition in vivo at 100 mg/kg [2, 4] [%]","inhibition in vivo at 50 mg/kg [2, 5] [%]","inhibition in vivo at 50 mg/kg [2, 6] [%]",further results
100 to 500,< 100,"CC1(CNC(=O)c2ccc(C#Cc3ccccc3F)cc2)COC1 [Example 52, 4-((2-fluorophenyl)ethynyl)-N-((3-methyloxetan-3-yl)methyl)benzamide]",90.8,101,–,–,–
< 100,500 to 1000,"O=C(NCC1(NC2CC2)CCCCC1)c1ccc(C#Cc2ccccc2F)cc1 [Example 20, N-((1-(cyclopropylamino)cyclohexyl)methyl)-4-((2-fluorophenyl)ethynyl)benzamide]",35,67,–,–,–
100 to 500,< 100,"O=C(NCC1CCOCC1)c1ccc(C#Cc2ccccc2F)cc1 [Example 27, 4-((2-fluorophenyl)ethynyl)-N-((tetrahydro-2H-pyran-4-yl)methyl)benzamide]",–,–,70.3,66.3,–
< 100,100 to 500,"O=C(NCC1(NC2CC2)CCC1)c1ccc(C#Cc2ccccc2F)cc1 [Example 9, N-((1-(cyclopropylamino)cyclobutyl)methyl)-4-((2-fluorophenyl)ethynyl)benzamide]",64,59.6,–,–,–
100 to 500,< 100,"O=C(NCC1CCCOC1)c1ccc(C#Cc2ccccc2F)cc1 (stereo not shown) [Example 40, 4-((2-fluorophenyl)ethynyl)-N-((tetrahydro-2H-pyran-3-yl)methyl)benzamide]",–,–,103,111,–
< 100,100 to 500,"O=C(NCC1(NC2CC2)CCOCC1)c1ccc(C#Cc2ccccc2F)cc1 [Example 22, N-((4-(cyclopropylamino)tetrahydro-2H-pyran-4-yl)methyl)-4-((2-fluorophenyl)ethynyl)benzamide]",–,–,19.3,77.5,–
100 to 500,< 100,"C[C@]1(O)C[C@@H](CNC(=O)c2ccc(C#Cc3ccccc3F)cc2)C1 [Example 87, 4-((2-fluorophenyl)ethynyl)-N-(((1s,3s)-3-hydroxy-3-methylcyclobutyl)methyl)benzamide]",–,–,93.7,104,–
